How the values were obtained:
Experiment in all cases: relative viability (nuclei count vs DMSO), 5 days (fraction); higher = more cells survive
[1] = compound: C1=CC2=NC=CN=C2C=C1/C=C/3\C(=O)NC(=O)S3 + N=C(N)NC(=N)NCCc1ccccc1 [Phenformin] (partner 250 µM)
In short: (§1)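 Lung cancer cell lines in 1536-well plates were dosed by pin tool the day after seeding, either with one drug alone or with a fixed anchor-drug dose plus five library-drug doses (not always all listed) in √10 steps. After 5 days, cells were fixed and their nuclei stained in one step (final 0.05% Triton X-100, 1% formaldehyde, 1 ug/ml Hoechst), then counted on 4× images. Relative viability is the nuclei count in treated wells divided by that in vehicle wells. Values are medians of duplicate plates.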

[2] = compound: CCN1CCN(c2ccc(Nc3cc(N(C)C(=O)Nc4c(Cl)c(OC)cc(OC)c4Cl)ncn3)cc2)CC1 [BGJ398] + CC(C)C[C@H](NC(=O)[C@H](Cc1ccccc1)NC(=O)c1cnccn1)B(O)O [Bortezomib] (partner 0.002 µM)
In short: as §1

[3] = compound: CCN1CCN(c2ccc(Nc3cc(N(C)C(=O)Nc4c(Cl)c(OC)cc(OC)c4Cl)ncn3)cc2)CC1 [BGJ398] + CS(=O)(=O)CCNCc1ccc(-c2ccc3ncnc(Nc4ccc(OCc5cccc(F)c5)c(Cl)c4)c3c2)o1 [Lapatinib] (partner 2 µM)
In short: as §1

[4] = compound: C1=CC2=NC=CN=C2C=C1/C=C/3\C(=O)NC(=O)S3 + Cc1cc(Nc2cc(N3CCN(C)CC3)nc(Sc3ccc(NC(=O)C4CC4)cc3)n2)n[nH]1 [Tozasertib] (partner 0.1 µM)
In short: as §1

Cell Line	relative viability ([1]; first compound 0.02 µM)	relative viability ([1]; first compound 0.06325 µM)	relative viability ([1]; first compound 0.2 µM)	relative viability ([1]; first compound 0.6325 µM)	relative viability ([1]; first compound 2 µM)	relative viability ([2]; first compound 0.01 µM)	relative viability ([2]; first compound 0.03162 µM)	relative viability ([2]; first compound 0.1 µM)	relative viability ([2]; first compound 0.3162 µM)	relative viability ([2]; first compound 1 µM)	relative viability ([3]; first compound 0.01 µM)	relative viability ([3]; first compound 0.03162 µM)	relative viability ([3]; first compound 0.1 µM)	relative viability ([3]; first compound 0.3162 µM)	relative viability ([3]; first compound 1 µM)	relative viability ([4]; first compound 0.02 µM)	relative viability ([4]; first compound 0.06325 µM)	relative viability ([4]; first compound 0.2 µM)	relative viability ([4]; first compound 0.6325 µM)	relative viability ([4]; first compound 2 µM)
201T	0.448	0.49	0.452	0.495	0.323	1.24	1.08	1.11	1.07	1.04	1.14	1.02	0.997	1.02	0.697	0.8	0.922	0.917	0.873	0.854
A549	0.175	0.137	0.156	0.2	0.152						0.885	0.99	0.952	0.919	0.819					
A-427	0.291	0.247	0.374	0.332	0.261	0.984	0.991	1.12	0.774	0.743	1.07	1.01	1.05	0.938	0.949	0.209	0.241	0.198	0.198	0.228
ABC-1	0.265	0.316	0.215	0.231	0.259	0.306	0.34	0.287	0.321	0.299	1.07	1.06	1.16	1.23	1.22	0.175	0.217	0.193	0.165	0.179
BEN	0.253	0.3	0.247	0.275	0.272	0.719	0.976	0.715	0.656	0.619	0.608	0.828	0.7	0.656	0.671	0.525	0.446	0.551	0.517	0.683
CAL-12T	0.577	0.479	0.562	0.517	0.546	0.954	0.852	0.996	0.943	0.837	0.661	0.685	0.763	0.726	0.585	0.289	0.383	0.346	0.313	0.331
COR-L23	0.459	0.455	0.46	0.43	0.425	0.942	0.975	1.08	0.855	0.99	0.887	0.903	1.15	0.992	0.908	0.168	0.218	0.19	0.211	0.188
COR-L 105	0.46	0.43	0.494	0.5	0.413	0.717	0.514	0.703	0.792	0.73	0.379	0.303	0.329	0.386	0.382	0.311	0.369	0.343	0.349	0.354
Calu-6						0.923	0.963	1.01	1.07	0.982	1.04	1.13	1.07	1.09	1.03					
ChaGo-K-1	0.45	0.466	0.516	0.35	0.369	1.12	0.928	0.957	0.896	0.604						0.243	0.215	0.248	0.232	0.239
EBC-1						0.616	0.614	0.589	0.53	0.526	0.215	0.222	0.178	0.23	0.21					
EKVX	0.216	0.22	0.239	0.223	0.225	0.993	1.06	1.27	0.959	1.07	0.178	0.199	0.204	0.201	0.169	0.423	0.321	0.38	0.449	0.352
EMC-BAC-2	0.499	0.532	0.55	0.518	0.396	1.05	1	1.14	1.08	1.01	0.872	0.982	0.899	0.832	0.838	0.276	0.253	0.368	0.243	0.297
EPLC-272H	0.259	0.302	0.371	0.26	0.297	0.96	0.816	0.957	0.841	0.861	1.13	0.814	0.833	0.748	0.497	0.263	0.253	0.254	0.259	0.175
H3255	0.368	0.348	0.358	0.358	0.3	0.712		0.712	0.439	0.69	0.288		0.238	0.241	0.219	0.575	0.644	0.55	0.602	0.698

From the supplement of paper PMC10307832
